Our source for the IC50 values is patent publication US20230098254A1, “SCUTELLARIAE RADIX COMPOUNDS AND USE THEREOF FOR INHIBITING OXIDATIVE PHOSPHORYLATION PATHWAY OF MITOCHONDRIA” (priority 2020, published 2023).

Assay [1] deals with HCC1806. Briefly: Cell viability CellTiter-Glo, HCC1806. It counts as cell-based. Conditions: Homo sapiens; HCC1806, breast cancer. As to the method: (§1) Cell viability was measured by using the Promega CellTiter-Glo kit, the kit reflected cell viability by directly measuring intracellular ATP content. Different cancer cells were cultured in culture medium, and the 50% inhibitory concentration IC50 of the compound SJ2858 was measured by Promega CellTiter-Glo kit. The name source and culture condition of each tumor cell line were as follows:
Cell line HCC1806 (ATCC, No. CRL-2335) was cultured in RPMI1640 medium containing 10% fetal bovine serum (+P/S);
On the technique in general: ATP-based viability assays read luminescence as a measure of living cells.

The subject of assay [2] is 22RV1. Briefly: Cell viability CellTiter-Glo, 22RV1. Format: cell-based. Conditions: Homo sapiens; 22RV1, prostate cancer. On the procedure:
as §1
Cell line 22RV1 (ATCC, No. CRL-2505) was cultured in RPMI1640 medium containing 10% fetal bovine serum (+P/S);

A word on the IC50: it is the concentration that gives 50% inhibition. Lower therefore signals inhibition by little substance.

With `O=c1cc(-c2ccccc2)oc2cc(O)c(O)c(O)c12` [Compound SJ2858, baicalein], the IC50 in assay [1] turned out to be 25.7 µM; in assay [2], 25.9 µM.
